Test results: US11674967B2, “Method of identifying potential inhibitors of APO TNFα trimers” (UCB BIOPHARMA SRL, priority 2015, dated 2023)

Experiments:
human TNFα trimer = biological target: T1, human TNFα trimer (Homo sapiens, UniProt P01375); assay: RMSD of crystal structure of compound-bound TNFα trimer to Reference Structure Compound 34; conditions: Cα atoms of β-sheet residues, all three subunits, PyMOL
T1 construct: His6Smt-tag (N, cleaved yes); made in house; host or cells: E. coli (vector pEMB54)
Method: Cells were pre-cultured at 37° C. in rich media, induced with the addition of 0.1% arabinose and allowed to express overnight at 25° C. in vector pEMB54. This vector introduces a cleavable N-terminal His6Smt-tag. The cells were lysed and purified by Ni-NTA chelate chromatography. The fusion protein was eluted with buffer containing imidazole and cleaved by the addition of protease. The final cleaved TNFα protein was purified by a subtractive Ni chelate chromatography step to remove the fusion tag and further purified by size exclusion chromatography to remove the remaining impurities. The final TNFα product was typically concentrated to 20.0 mg/ml and flash frozen in liquid nitrogen.
Purified human TNF[…] (20.0 mg/ml, VC 2043) was diluted to 4-7 mg/ml in 10 mM HEPES pH 7.5, 150 mM NaCl buffer followed by overnight incubation at 4° C. with 0.3-0.5 mM compound (1-2 molar excess). The TNF[…] compound complexes were crystallized by sitting drop vapor diffusion by mixing 0.5 μl of complex with 0.5 μl of 21.44% PEG 3350, 100 mM Tris, pH 9.0 (UCB1474433); or 22.0% PEG 3350, 100 mM glycine, 100 mM Tris, pH 8.5 (UCB1480595); or 25.6% PEG 3350, 100 mM Tris, pH 8.3, 3% xylitol (UCB5143079) or other formulation with varying precipitant concentration or additives over 100 μl of the same crystallization solution. Other formulations for other compounds include a range of PEG 3350 of 8-28%. Other PEG-like additives include PEG 1000 (8-18%) or PEG 2000 (10-13%). Other additives include MPD (5-13%) or 200 mM NaCl. Other buffers include 100 mM Hepes (pH 7-8), 100 mM Tris or bis-Tris (pH 6.7-9.0). Other non-PEG 3350 crystallization solutions consist of PEG 2000 (14-19%), 100 mM Hepes, pH 8, 25 mM arginine; or 17% PEG 10000, 200 mM ammonium acetate, 100 mM bis-Tris, pH 5.5; or 30% PEG 2000 MME, 100 mM sodium acetate, 100 mM Mes, pH 6.5.
Crystals were briefly soaked in ethylene glycol and/or vitrified directly in liquid nitrogen for data collection.
X-ray diffraction data were collected from a synchrotron source at a wavelength, most frequently, of 0.976484 Å and recorded on CCD detector. […] The structure of the human TNF[…] (VC 2043) complexed with compound was solved by molecular replacement using Phaser with input model of 1TNF. […] Iterative manual model building using Coot (Emsley and Cowtan, 2004) and Refmac (Murshudov et al., 1997) continued until R and Rfree converged. […] The resolution of the structures was most frequently around 2.15 Å.
Root mean squared deviation (RMSD) calculations were carried out to ascertain the distance of each of the crystal structures of distorted TNFα trimer to a reference structure.
RMSD calculations were done using the program PyMOL (www.pymol.org). In this example version 1.7. was used. The cmd.rms PyMOL command was used with defined pairs of atoms. The atoms used were the backbone Ca's of certain residues within the β-strands of TNFα. The residue numbers used are shown below:
These residue numbers are those within the published structure of TNFα with PDB code 1A8M and within the distorted TNFα trimer structures of this invention. The residue numbers are also according to the sequence of SEQ ID NO:36. The residues in each of the three chains with the TNFα structures, (labelled A, B, and C according to our instructions) were used.
The command cmd.rms was used with the following arguments:
rms=cmd.rms(“(moving)”, “(target)”, matchmaker=4, quiet=0, cycles=0)
where “(moving)” is the selection of atoms in a given TNFα structure and “(target)” is the selection of equivalent atoms within the reference structure.
The RMSD was calculated for each structure against all others. The “representative structure” or “Reference Structure” was chosen to be the one with the lowest sum RMSD to all others—the structure “Compound 34” or “Compound34.pdb”.
Reference Structure (Compound 34) and Query Structure (Compound 64) were overlaid (see FIG. 17 with Reference Structure emboldened) by: • 1. […]

TNFR2 = assay: Membrane TNF - TNFR2 signalling (NS0-mTNF cells with expanded primary human T cells); assay type: cell-based; conditions: compound bound to membrane TNFα on NS0 cells
Method: A murine B cell line (NS0-mTNF) stably expressing non-cleavable human membrane TNF due to a mutation at the TACE cleavage site was used to trigger TNFR2 signalling in PHA-L and IL-2 expanded primary human T cells. […] TNFR1 was also present on these cells but was blocked using a UCB mouse anti-human-TNFR1 antibody 5R16.
NS0-mTNF cells were cultured with 10 μM NCEs for 1 hour to allow binding of Compounds to membrane TNF. T cells were then mixed with the NS0-mTNF cells and following a brief spin to allow cell-cell contact, cells were incubated for 5 min and then lysed in lysis buffer. […] First TRAF-2 recruitment to the TNFR2 receptor was measured in Co-immunoprecipitation experiments as a measure of membrane proximal signalling. After lysis of cells TNFR2 was isolated from the lysate using polyclonal goat anti-human TNFR2 antibodies followed by protein G sepharose bead purification. TNFR2 associated TRAF-2 was then measured in immunoblots after running the purified TNFR2 preparation on a SDS-PAGE. In addition, the whole cell lysate was also sampled for the presence of pNFκB using SDS-PAGE and pNFκB specific immunoblots.
• PBMC from 3 three different donors were cultured in 6 well plates with 10×10^6 cells per well in 5 ml of RPMI1640 supplemented with 10% FCS, 1% human serum, HEPES GlutaMAX, 25 U/ml hIL-2 (Roche) and 2 μg/ml PHA-L (Sigma) to grow out T cells • after 3 days cells were resuspended and cultured in 75 cm^2 flasks with the same media as above, but lacking the PHA-L • growth of culture was monitored and media was changed every 3 days.
This is a 2× solution • prepare 500 μl of 10×10^6 NS0-wt cells • After 1 h add 500 μl human T cells (50×10^6 cells/test) in human media at 37° C. T cells were preincubated for 15 min @37° C. with 50 μg/ml 5R16 anti-TNFR1 Fab-PEG to block signalling via TNFR1 prior adding to the NS0 cells. […]

TNFα [1] = biological target: T2, TNFα (Homo sapiens, UniProt P01375); assay: Surface plasmon resonance kinetics of compound binding to immobilised TNFα
Method: Surface plasmon resonance was used to measure the association rate, the dissociation rate and the affinity of the compounds of formulae (3) and (15) for TNFα (FIGS. 12A and B). For the purpose of this study a Biacore T100/T200 was used.
TNFα was immobilised at pH5 to a level of 5-8 KRU onto a CMS sensor in HBS-P buffer (10 mM HEPES pH 7.4, 0.15 M NaCl, 0.005% Surfactant P20, BIAcore, GE Healthcare). The TNFα was then equilibrated in HBS-P with 5% DMSO for at least 5 hours. The samples were diluted from 10 mM stocks into DMSO matched buffer and left to solubilise for at least 5 hours. The flow rate was […].
This assay was performed by adding 4 or 5 concentrations of compound starting from a highest concentration of 25 μM for compound of formula (3) and 1 μM for compound of formula (15) and then serially diluting this sample. Background subtraction binding curves were analysed using the BIAevaluation software following standard procedures. Binding, affinity and kinetic parameters were determined using Biacore software. The kinetic data were fitted using the levenberg marquardt algorithm.
Target sequence in this assay (P01375 77-233 limits assumed): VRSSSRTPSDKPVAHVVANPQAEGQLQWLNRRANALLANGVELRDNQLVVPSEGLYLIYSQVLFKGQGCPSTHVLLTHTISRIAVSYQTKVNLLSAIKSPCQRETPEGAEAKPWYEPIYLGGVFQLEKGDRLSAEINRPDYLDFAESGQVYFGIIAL

TNFα [2] = biological target: T2, TNFα; assay: Meso Scale Discovery (MSD) assay of TNFα binding to plate-coated TNFR-ECD; parameters: purchased R&D Systems; conditions: single point, 100 μM, 5% DMSO
Method: 384 well uncoated plates (standard binding) Meso Scale Discovery plates (MSD) were coated overnight with the extracellular domain of TNFR (TNFR-ECD) (10 μl, 1 ug/mL in PBS). To ensure even distribution plates were centrifuged at 1000 rpm for 2 minutes. The plates were then sealed and stored at +4° C. overnight.
The wells of the plates were then washed three times in 50 μl phosphate buffered saline pH 6.5 (PB) with 0.05% Tween 20 (wash buffer), and then blocked with 50 μl 2% BSA. The plates were then incubated at room temperature on a shaker (600 rpm) for 2 hours. After this incubation plates were washed (3×50 μl wash buffer per well). During the blocking incubation, compounds of formulae (3) and (15) were pre-incubated with TNF (R&D Systems) prior to addition to the pre-blocked and washed MSD plates. For a single point assay as shown in FIG. 2A the compounds were assayed at a final concentration of 100 μM (5% final v/v DMSO). […]
The plates were then washed (3×50 μl wash buffer per well), followed by the addition of 50 μl MSD Read buffer T plus surfactant (diluted 1 in 2 in H2O) and read on a SECTOR Imager 6000.
For single point assays percentage inhibition was calculated using a control sample without compound.
For EC50s determination results were calculated by standard means using a 4 parameter logistic model (sigmoidal dose response model).
Target sequence in this assay (P01375 77-233 limits assumed): as above
Target sequence in this assay (P19438 30-211 partner limits assumed): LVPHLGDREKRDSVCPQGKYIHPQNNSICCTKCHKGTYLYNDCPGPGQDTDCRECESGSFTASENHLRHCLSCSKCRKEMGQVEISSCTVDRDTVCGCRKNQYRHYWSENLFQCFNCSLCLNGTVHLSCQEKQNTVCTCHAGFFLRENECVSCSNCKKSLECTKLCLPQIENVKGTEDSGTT

T1 sequence (P01375 with tags, fused parts or gaps): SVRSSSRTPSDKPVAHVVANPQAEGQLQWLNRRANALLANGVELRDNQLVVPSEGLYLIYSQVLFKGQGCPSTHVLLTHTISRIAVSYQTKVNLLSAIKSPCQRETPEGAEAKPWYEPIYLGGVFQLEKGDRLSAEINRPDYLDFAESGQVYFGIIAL

SMILES	RMSD (Å) with Compound 34 (human TNFα trimer)	TNFR2 specific membrane proximal (TRAF-2 recruitment to TNFR2) and downstream (pNFκB) signalling (TNFR2)	kon (TNFα [1])	% inhibition of TNFα binding to the TNF receptor (TNFα [2])
O=C1CCCN1c1cccc(OCc2nc3ccc(-c4ccc(=O)[nH]c4)cc3n2Cc2ccccc2OC(F)F)c1 [Compound 39]	0.22 Å	does not impair	5470 M⁻¹ s⁻¹	
Cc1nc2ccc(-c3ccc(N4CCNCC4)nc3)cn2c1Cc1ccccc1OC(F)F [Compound 43]	0.36 Å	does not impair		
Cc1nc2cc(F)c(-c3cnc(N4CC(O)(C(F)(F)F)C4)nc3)cn2c1[C@@H](O)c1ccccc1OC(F)F [Compound 64, 1-[5-[3-[(S)-[2-(difluoromethoxy)phenyl]-hydroxy-methyl]-7-fluoro-2-methyl-imidazo[1,2-a]pyridin-6-yl]pyrimidin-2-yl]-3-(trifluoromethyl)azetidin-3-ol]	0.22 Å			
Cc1cc2occ(CN(C)CCN(C)Cc3cn(-c4cccc(C(F)(F)F)c4)c4ccccc34)c(=O)c2cc1C [SPD-304]				+80%
